Each block holds one compound with its values, some of them ahead of it.
Experiments:
[1] = biological target: Protein cereblon/Tyrosine-protein kinase BTK (Homo sapiens, UniProt Q06187+Q96SW2, C481S); assay: PROTAC activity at CRBN/BTK C481S mutant in human TMD8 cells assessed as degradation of BTK protein incubated for 4 hrs by HTRF assay; format: cell-based
[2] = Oral bioavailability in mouse; format: ADME, organism-based; conditions: in vivo
[3] = biological target: T1, Protein cereblon/Tyrosine-protein kinase BTK (Homo sapiens, UniProt Q06187+Q96SW2); assay: PROTAC activity at CRBN/BTK in human TMD8 cells assessed as induction of BTK degradation incubated for 24 hrs by immunoblotting analysis; format: cell-based
Target sequence in this assay (Q06187 whole entry): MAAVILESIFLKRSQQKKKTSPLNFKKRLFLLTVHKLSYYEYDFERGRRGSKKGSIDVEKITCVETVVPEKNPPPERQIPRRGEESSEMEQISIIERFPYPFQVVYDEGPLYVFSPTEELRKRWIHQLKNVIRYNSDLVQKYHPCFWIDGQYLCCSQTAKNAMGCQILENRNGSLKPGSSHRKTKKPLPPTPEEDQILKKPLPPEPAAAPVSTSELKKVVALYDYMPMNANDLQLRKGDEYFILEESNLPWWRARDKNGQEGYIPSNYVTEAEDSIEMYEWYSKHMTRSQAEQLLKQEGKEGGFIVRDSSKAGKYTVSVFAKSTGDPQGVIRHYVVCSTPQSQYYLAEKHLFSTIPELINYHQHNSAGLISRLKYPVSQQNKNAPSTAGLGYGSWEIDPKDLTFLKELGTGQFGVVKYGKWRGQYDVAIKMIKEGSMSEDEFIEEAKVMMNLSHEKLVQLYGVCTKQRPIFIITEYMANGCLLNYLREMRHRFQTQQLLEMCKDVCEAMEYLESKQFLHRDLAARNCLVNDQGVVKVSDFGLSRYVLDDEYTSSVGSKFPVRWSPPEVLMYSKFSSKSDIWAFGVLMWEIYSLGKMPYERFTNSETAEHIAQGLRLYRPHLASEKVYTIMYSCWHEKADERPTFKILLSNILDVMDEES
Target sequence in this assay (Q96SW2 whole entry): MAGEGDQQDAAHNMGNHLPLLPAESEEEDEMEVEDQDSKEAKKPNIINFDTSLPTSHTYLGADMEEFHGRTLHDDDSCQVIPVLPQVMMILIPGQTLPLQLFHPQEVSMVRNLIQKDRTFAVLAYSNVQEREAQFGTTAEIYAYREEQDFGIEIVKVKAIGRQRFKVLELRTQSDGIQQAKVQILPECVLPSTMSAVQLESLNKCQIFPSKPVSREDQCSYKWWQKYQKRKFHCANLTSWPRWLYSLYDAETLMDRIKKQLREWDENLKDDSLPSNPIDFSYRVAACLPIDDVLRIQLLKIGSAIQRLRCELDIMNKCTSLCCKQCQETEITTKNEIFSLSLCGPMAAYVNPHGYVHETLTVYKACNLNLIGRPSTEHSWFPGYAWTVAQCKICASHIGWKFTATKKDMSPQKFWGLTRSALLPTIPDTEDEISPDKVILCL

[4] = biological target: T1, Protein cereblon/Tyrosine-protein kinase BTK; assay: PROTAC activity at CRBN/BTK in human TMD8 cells assessed as maximal degradation of BTK protein incubated for 24 hrs by immunoblotting analysis relative to control; format: cell-based
[5] = Cmax in mouse at 10 mg/kg, po measured upto 24 hrs by LC-MS/MS analysis; format: ADME, organism-based; conditions: in vivo
[6] = Cmax in C57BL/6 mouse at 30 mg/kg, po by LC-MS/MS analysis; format: ADME, organism-based; conditions: in vivo
[7] = Tmax in C57BL/6 mouse at 30 mg/kg, po by LC-MS/MS analysis; format: ADME, organism-based; conditions: in vivo
[8] = Half life in C57BL/6 mouse at 30 mg/kg, po by LC-MS/MS analysis; format: ADME, organism-based; conditions: in vivo
[9] = AUC (0 to t) in C57BL/6 mouse at 30 mg/kg, po by LC-MS/MS analysis; format: ADME, organism-based; conditions: in vivo
[10] = Oral bioavailability in BALB/c mouse at 30 mg/kg measured for 24 hrs by UPLC-MS/MS analysis; format: ADME, organism-based; conditions: in vivo
[11] = Cmax in BALB/c mouse at 30 mg/kg measured for 24 hrs by UPLC-MS/MS analysis; format: ADME, organism-based; conditions: in vivo
[12] = Tmax in BALB/c mouse at 30 mg/kg measured for 24 hrs by UPLC-MS/MS analysis; format: ADME, organism-based; conditions: in vivo
[13] = AUC (0 to t) in BALB/c mouse at 30 mg/kg measured for 24 hrs by UPLC-MS/MS analysis; format: ADME, organism-based; conditions: in vivo
[14] = Oral bioavailability in Sprague-Dawley rat at 40 mg/kg measured up to 24 hrs by LC-MS analysis; format: ADME, organism-based; conditions: in vivo
[15] = Cmax in Sprague-Dawley rat at 40 mg/kg, po measured after 24 hrs by LC-MS/MS analysis; format: ADME, organism-based; conditions: in vivo
[16] = Tmax in Sprague-Dawley rat at 40 mg/kg, IG measured up to 24 hrs by LC-MS/MS analysis; format: ADME, organism-based; conditions: in vivo, po
[17] = Half life in Sprague-Dawley rat at 40 mg/kg, po measured after 24 hrs by LC-MS/MS analysis; format: ADME, organism-based; conditions: in vivo
[18] = AUC (0 to t) in Sprague-Dawley rat at 40 mg/kg, IG measured up to 24 hrs by LC-MS/MS analysis; format: ADME, organism-based; conditions: in vivo, po
[19] = biological target: von Hippel-Lindau disease tumor suppressor/Tyrosine-protein kinase BTK (Homo sapiens, UniProt Q06187+P40337, C481S); assay: PROTAC activity at VHL/BTK C481S mutant in human TMD8 cells assessed as induction of BTK degradation incubated for 24 hrs by immunoblotting analysis; format: cell-based
[20] = system: von Hippel-Lindau disease tumor suppressor/Tyrosine-protein kinase BTK (Homo sapiens), Q06187+P40337 [C481S]; assay: PROTAC activity at VHL/BTK C481S mutant in human TMD8 cells assessed as maximum degradation of protein relative to control; format: cell-based
[21] = biological target: T2, Protein cereblon/Leucine-rich repeat serine/threonine-protein kinase 2 (Homo sapiens, UniProt Q5S007+Q96SW2); assay: PROTAC activity at CRBN/LRRK2 in human MOLT-4 cells assessed as induction of LRRK2 degradation at 1 uM by Western blot analysis relative to control; format: cell-based
Target sequence in this assay (Q5S007 whole entry, looked up): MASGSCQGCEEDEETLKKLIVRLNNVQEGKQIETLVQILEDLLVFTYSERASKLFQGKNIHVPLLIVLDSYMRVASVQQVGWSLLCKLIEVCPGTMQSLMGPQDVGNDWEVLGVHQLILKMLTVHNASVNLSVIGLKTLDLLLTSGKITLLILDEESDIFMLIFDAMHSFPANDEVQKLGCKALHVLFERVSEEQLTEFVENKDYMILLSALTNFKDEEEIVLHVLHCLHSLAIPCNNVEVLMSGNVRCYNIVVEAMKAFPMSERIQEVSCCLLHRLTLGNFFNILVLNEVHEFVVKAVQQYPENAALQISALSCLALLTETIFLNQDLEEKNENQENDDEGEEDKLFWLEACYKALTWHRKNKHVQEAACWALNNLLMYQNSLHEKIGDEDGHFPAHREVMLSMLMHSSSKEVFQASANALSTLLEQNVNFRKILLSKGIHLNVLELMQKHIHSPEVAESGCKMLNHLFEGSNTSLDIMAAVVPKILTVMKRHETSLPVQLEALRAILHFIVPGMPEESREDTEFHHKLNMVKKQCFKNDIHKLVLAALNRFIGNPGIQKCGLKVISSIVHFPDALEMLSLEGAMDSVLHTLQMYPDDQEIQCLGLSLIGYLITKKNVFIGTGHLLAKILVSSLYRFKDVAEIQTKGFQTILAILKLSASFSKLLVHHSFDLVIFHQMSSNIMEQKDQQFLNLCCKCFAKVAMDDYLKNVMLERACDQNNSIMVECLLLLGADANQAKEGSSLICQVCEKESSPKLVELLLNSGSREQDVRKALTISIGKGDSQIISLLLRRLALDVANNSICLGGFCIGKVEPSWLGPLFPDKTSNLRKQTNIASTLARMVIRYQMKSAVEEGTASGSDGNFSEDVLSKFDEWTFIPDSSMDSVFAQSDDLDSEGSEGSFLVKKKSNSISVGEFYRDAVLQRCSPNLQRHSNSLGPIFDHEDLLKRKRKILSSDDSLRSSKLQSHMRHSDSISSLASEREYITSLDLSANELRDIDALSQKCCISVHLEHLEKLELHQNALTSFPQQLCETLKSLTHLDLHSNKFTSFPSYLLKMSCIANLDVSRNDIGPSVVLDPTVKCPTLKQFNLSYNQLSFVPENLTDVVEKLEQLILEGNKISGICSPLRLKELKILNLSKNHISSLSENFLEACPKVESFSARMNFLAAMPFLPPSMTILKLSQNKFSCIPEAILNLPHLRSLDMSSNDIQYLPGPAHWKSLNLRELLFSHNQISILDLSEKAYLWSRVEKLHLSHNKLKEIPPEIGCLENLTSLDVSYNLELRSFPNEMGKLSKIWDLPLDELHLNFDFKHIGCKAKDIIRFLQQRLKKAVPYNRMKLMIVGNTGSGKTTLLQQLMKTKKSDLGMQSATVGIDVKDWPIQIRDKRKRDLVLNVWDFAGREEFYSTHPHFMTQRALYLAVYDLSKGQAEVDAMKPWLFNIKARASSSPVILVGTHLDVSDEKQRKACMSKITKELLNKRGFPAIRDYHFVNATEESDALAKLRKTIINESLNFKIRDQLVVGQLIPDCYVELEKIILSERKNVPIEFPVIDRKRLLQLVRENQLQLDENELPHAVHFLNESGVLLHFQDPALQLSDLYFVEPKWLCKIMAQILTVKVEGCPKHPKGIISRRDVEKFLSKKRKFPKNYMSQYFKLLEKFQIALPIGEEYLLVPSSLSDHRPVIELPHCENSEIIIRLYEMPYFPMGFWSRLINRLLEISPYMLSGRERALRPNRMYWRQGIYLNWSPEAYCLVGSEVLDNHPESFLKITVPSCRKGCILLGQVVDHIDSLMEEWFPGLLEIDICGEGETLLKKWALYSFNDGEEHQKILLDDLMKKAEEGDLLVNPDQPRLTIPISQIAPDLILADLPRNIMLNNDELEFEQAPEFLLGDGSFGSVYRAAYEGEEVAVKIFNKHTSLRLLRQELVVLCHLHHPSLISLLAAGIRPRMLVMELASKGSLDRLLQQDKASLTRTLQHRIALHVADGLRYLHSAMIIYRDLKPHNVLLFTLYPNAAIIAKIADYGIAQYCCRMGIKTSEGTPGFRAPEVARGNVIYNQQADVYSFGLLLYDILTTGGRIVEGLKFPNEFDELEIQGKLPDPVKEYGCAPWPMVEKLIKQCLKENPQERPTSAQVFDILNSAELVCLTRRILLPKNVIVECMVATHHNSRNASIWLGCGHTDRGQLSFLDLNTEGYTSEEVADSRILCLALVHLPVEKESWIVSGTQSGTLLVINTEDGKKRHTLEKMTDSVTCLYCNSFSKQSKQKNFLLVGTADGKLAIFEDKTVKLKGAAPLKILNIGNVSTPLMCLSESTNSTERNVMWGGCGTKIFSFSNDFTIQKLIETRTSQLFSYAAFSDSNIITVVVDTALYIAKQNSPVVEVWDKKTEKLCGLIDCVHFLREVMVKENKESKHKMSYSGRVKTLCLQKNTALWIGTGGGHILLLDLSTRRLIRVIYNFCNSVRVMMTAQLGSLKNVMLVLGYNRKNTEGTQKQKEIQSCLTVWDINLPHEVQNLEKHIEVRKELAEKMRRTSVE
Target sequence in this assay (Q96SW2 whole entry, looked up): as the sequence (Q96SW2 whole entry) above

[22] = biological target: T2, Protein cereblon/Leucine-rich repeat serine/threonine-protein kinase 2; assay: PROTAC activity at CRBN/LRRK2 in human MOLT-4 cells assessed as induction of LRRK2 degradation incubated for 48 hrs by Western blot analysis; format: cell-based
Target sequence in this assay (Q5S007 whole entry): as the sequence (Q5S007 whole entry, looked up) above
Target sequence in this assay (Q96SW2 whole entry): as the sequence (Q96SW2 whole entry) above

[23] = biological target: von Hippel-Lindau disease tumor suppressor/Histone-lysine N-methyltransferase EZH2 (Homo sapiens, UniProt Q15910+P40337, Y641N); assay: PROTAC activity against VHL/EZH2 Y641N mutant in human DB cells assessed as degradation of EZH2 protein expression incubated for 24 hrs by Western blot analysis; format: cell-based
[24] = biological target: von Hippel-Lindau disease tumor suppressor/Bromodomain-containing protein 9 (Homo sapiens, UniProt Q9H8M2+P40337); assay: PROTAC activity at VHL/BRD9 in human HeLa cells assessed as induction of protein degradation […]; format: cell-based
[25] = Oral availability in ICR mouse at 30 mg/kg by HPLC-MS/MS analysis; format: ADME, organism-based; conditions: in vivo
[26] = AUC (0 to t) in ICR mouse at 30 mg/kg, po measured upto 24 hrs by HPLC-MS/MS analysis; format: ADME, organism-based; conditions: in vivo

Sequence of von Hippel-Lindau disease tumor suppressor/Bromodomain-containing protein 9 (Q9H8M2 whole entry): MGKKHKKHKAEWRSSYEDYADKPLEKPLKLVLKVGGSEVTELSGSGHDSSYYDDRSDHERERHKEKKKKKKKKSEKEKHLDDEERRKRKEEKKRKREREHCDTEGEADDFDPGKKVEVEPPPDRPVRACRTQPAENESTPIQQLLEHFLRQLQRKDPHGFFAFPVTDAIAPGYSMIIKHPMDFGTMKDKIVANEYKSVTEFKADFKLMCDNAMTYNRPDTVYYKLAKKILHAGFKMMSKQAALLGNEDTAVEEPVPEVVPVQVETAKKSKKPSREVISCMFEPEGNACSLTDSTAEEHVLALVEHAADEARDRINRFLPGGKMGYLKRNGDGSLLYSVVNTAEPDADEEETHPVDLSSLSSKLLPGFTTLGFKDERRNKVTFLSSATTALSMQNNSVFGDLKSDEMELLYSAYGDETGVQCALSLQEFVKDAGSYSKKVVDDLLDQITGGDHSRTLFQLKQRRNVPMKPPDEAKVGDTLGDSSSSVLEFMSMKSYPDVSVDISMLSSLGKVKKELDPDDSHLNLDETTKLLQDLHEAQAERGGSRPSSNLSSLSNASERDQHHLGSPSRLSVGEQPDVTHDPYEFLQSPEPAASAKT
Sequence of von Hippel-Lindau disease tumor suppressor/Bromodomain-containing protein 9 (P40337 whole entry): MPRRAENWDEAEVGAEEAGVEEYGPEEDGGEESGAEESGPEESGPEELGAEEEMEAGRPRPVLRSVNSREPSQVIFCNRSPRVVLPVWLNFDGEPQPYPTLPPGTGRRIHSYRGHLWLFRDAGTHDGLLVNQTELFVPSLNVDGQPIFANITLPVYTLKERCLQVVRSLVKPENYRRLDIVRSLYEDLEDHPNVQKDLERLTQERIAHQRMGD

SMILES: NC(=O)c1ncc(N2CCCCC2)nc1Nc1ccc(C2CCN(C[C@@H]3CCN(c4ccc5c(c4)C(=O)N(C4CCC(=O)NC4=O)C5=O)C3)CC2)cc1 (some centres not stated)
- DC50 [1]: 13 nM
- bioavailability [2]: 8%
- DC50 [3]: 4.5 nM
- Emax [4]: 86%
- Cmax [5]: 1300 nM

SMILES: N#Cc1cccc(-c2ccc(=O)n(Cc3cccc(-c4ncc(OCC5CCN(CC(=O)N6CCN(c7ccc8c(c7)C(=O)N(C7CCC(=O)NC7=O)C8=O)CC6)CC5)cn4)c3)n2)c1 (configuration not stated)
- bioavailability [14]: 0.7%
- Cmax [15]: 8.47 ng/mL
- Tmax [16]: 1.75 h
- half-life [17]: 15.8 h
- AUC(0-t) at 24 h [18]: 74.2 ng·h/mL

SMILES: CN1CCN([C@@H]2CCCN(c3cnc(C(N)=O)c(Nc4ccc(C5CCN(C(=O)CCOCCNc6cccc7c6C(=O)N(C6CCC(=O)NC6=O)C7=O)CC5)cc4)n3)C2)C1=O (some centres not stated)
- DC50 [19]: 7 nM
- Emax [20]: 86%

SMILES: Cc1ncsc1-c1ccc(CNC(=O)[C@@H]2C[C@@H](O)CN2C(=O)[C@@H](NC(=O)CCCCCCCCCCNC(=O)OC2C[C@@H](C)C=C3C=C[C@H](C)[C@H](CC[C@@H](O)C[C@H](O)CC(=O)O)[C@H]32)C(C)(C)C)cc1 (some centres not stated)
- Emax [21]: 65%
- DC50 [22]: 120 nM

SMILES: Cc1ncsc1-c1ccc(CNC(=O)[C@@H]2C[C@@H](O)CN2C(=O)[C@@H](NC(=O)CCCNC(=O)c2ccc(-c3cnc(NCc4ccco4)n4cnnc34)cc2)C(C)(C)C)cc1
- DC50 [23]: 670 nM

SMILES: COc1cc(-c2cn(C)c(=O)c3[nH]ncc23)cc(OC)c1CN1CCN(C(=O)CN2CCC(c3ccc(NC4CCC(=O)NC4=O)cc3)CC2)CC1 (configuration not stated)
- bioavailability [2]: < 1%
- DC50 [24]: 5 nM

More lines, now with the values ahead:

- Cmax [6]: 470 ng/mL
- Tmax [7]: 8 h
- half-life [8]: 5.1 h
- AUC(0-t) [9]: 5000 ng·h/mL
SMILES: Cc1ncsc1-c1ccc(CNC(=O)[C@@H]2C[C@@H](O)CN2C(=O)[C@@H](NC(=O)CCCCCCCCCCNC(=O)OC2C[C@@H](C)C=C3C=C[C@H](C)[C@H](CC[C@@H]4C[C@H](O)CC(=O)O4)[C@H]32)C(C)(C)C)cc1 (some centres not stated)

- bioavailability [10]: 23%
- Cmax [11]: 7060 ng/mL
- Tmax [12]: 1.67 h
- AUC(0-t) at 24 h [13]: 18000 ng·h/mL
SMILES: Cc1ncsc1-c1ccc(CNC(=O)[C@@H]2C[C@@H](O)CN2C(=O)[C@@H](NC(=O)COCCCCOc2ccc(C3CCN(C4=Nn5c(nnc5C(F)(F)F)CC4)CC3)cc2)C(C)(C)C)cc1

- bioavailability [25]: 22%
- AUC(0-t) at 24 h [26]: 50000 ng·h/mL
SMILES: Cc1ncsc1-c1ccc([C@H](CC[C@H](C)CCN2CCC(c3ccc4c(c3)n(C3CCCC3)c3nc(=O)c5c(Br)cccc5n43)CC2)NC(=O)[C@@H]2C[C@@H](O)CN2C(=O)[C@@H](NC(=O)C2(F)CC2)C(C)(C)C)cc1
